Values after ≈ are worked out from the molar mass of the structure shown.
Test system: murine P388 lymphocytic leukemia (PS) cell line
Assay: murine P388 lymphocytic leukemia (PS system) cell line growth inhibition, standard National Cancer Institute protocol
Assay type: cell-based

Compound	IC50 (Mus musculus, P388, murine P388 lymphocytic leukemia (PS system) cell line, read-out: PS cell line activity ED50) [µg/mL]	PS cell line activity ED50 (murine P388 lymphocytic leukemia (PS system) cell line) [µg/mL]
O=C1CCc2ccc(O)c(c2)Oc2ccc(cc2)[C@@H]2O[C@@H]2CO1 (relative stereo) [Combretastatin D-1]	3.3 (≈ 10.6 µM)	–
O=C1CCc2ccc(O)c(c2)Oc2ccc(cc2)/C=C\CO1 [Combretastatin D-2]	–	5.2

Reference: patent publication US4940726A, “Cell growth inhibitory macrocyclic lactones denominated Combretastatin D-1 and Combretastatin D-2” (Arizona Board of Regents, priority 1989, dated 1990)
